Publication PMC3692398 (Biochemical pharmacology, 2013)

Assays:
hVMAT2 [1] = target: T1, hVMAT2 (Homo sapiens, UniProt Q05940); assay: Inhibition of [3H]DHTB binding, HEK-hVMAT2 membranes; conditions: read-out: Inhibition of [3H]DHTB binding Ki ± sem, hVMAT2
hVMAT2 [2] = target: T1, hVMAT2; assay: Inhibition of [3H]5-HT uptake, HEK-hVMAT2 membrane preparation; assay type: biochemical; conditions: read-out: Inhibition of [3H]5-HT uptake IC50 ± sem, hVMAT2; 40 nM [3H]5-HT, 2 mM MgATP
h5-HT2C receptor [3] = target: T2, h5-HT2C receptor (Homo sapiens, UniProt P28335); assay: biochemical; assay type: binding
T2 sequence (P28335 33-458): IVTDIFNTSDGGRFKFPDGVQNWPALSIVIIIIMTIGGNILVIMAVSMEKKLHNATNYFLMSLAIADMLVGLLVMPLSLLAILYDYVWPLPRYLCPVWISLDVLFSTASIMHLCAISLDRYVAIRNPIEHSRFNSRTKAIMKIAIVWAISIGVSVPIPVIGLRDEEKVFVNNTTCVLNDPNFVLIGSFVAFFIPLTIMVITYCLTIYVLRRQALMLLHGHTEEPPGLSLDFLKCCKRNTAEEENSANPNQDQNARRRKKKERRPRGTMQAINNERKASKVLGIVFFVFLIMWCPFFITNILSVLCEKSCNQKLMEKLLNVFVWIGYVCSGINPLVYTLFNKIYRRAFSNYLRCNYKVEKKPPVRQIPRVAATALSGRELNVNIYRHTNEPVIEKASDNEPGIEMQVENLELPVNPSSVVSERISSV

h5-HT2C receptor [4] = target: T2, h5-HT2C receptor; assay: Inhibition of 5-HT-stimulated IP-1 formation; assay type: cell-based
human DA D1 receptor = human DA D1 receptor (Homo sapiens, UniProt P21728); assay: [3H]SCH23390 binding, LhD1 cells; conditions: test drugs up to the maximal concentration tested (10 µM)
Chain of human DA D1 receptor (P21728 whole entry): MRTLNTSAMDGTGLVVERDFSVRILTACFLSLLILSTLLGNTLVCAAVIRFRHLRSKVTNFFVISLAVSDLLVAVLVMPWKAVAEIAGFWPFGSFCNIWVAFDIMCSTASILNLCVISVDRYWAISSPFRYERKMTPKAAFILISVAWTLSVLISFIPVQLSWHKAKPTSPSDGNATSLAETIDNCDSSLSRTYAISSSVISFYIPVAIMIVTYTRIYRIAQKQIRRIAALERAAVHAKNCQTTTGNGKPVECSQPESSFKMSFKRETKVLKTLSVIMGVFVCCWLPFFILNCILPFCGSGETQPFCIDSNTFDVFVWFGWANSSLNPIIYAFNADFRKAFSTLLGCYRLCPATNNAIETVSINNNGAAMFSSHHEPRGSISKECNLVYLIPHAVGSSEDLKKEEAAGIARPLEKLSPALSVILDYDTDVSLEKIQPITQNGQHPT

hSigma1 receptor = hSigma1 receptor (Homo sapiens, UniProt Q99720); assay: [3H]; assay type: binding; conditions: Inhibition of [3H]pentazocine binding Ki ± sem, hSigma1
Chain of hSigma1 receptor (Q99720 whole entry): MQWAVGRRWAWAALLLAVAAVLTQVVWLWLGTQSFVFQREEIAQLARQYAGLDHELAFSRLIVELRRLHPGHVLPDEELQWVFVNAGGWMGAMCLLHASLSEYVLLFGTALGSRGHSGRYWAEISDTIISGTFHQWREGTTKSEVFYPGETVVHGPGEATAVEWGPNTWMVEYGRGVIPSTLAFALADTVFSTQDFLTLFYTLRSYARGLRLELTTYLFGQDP

T1 sequence (Q05940 whole entry): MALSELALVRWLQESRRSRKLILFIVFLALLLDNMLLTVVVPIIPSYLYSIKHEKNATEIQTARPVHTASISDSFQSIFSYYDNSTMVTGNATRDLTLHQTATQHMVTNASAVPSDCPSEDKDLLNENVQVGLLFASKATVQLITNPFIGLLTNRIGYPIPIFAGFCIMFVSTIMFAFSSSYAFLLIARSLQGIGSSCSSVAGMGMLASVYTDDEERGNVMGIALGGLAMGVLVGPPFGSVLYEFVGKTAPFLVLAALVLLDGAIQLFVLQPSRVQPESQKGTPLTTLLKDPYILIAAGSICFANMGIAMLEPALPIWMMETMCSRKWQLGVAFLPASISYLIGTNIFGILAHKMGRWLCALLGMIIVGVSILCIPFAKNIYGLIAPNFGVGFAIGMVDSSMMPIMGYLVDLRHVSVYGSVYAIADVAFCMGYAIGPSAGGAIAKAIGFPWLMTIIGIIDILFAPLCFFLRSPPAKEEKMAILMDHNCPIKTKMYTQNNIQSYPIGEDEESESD

## CCC1(O)CC2c3cc(OC)c(OC)cc3CCN2CC1CC(C)C [RO4-1284, (2R,2S,11bs)-2-ethyl-3-isobutyl-9,10-dimethoxy-2,2,4,6,7,11b-hexahydro-1H-pyrido[2,1-a]isoquinolin-2-ol, reference compound]
hVMAT2 [1]
  Ki: 150 ± 15 nM
hVMAT2 [2]
  IC50: 98 ± 32 nM

## Cc1cc2c(cc1Cl)N(C(=O)Nc1ccc(Oc3cccnc3C)nc1)CC2 [SB242084, reference compound]
h5-HT2C receptor [3]
  Ki: 2.47 nM
h5-HT2C receptor [4]
  IC50: 0.28 ± 0.12 nM

## CN1CCc2cc(Cl)c(O)cc2[C@@H](c2ccccc2)C1 [SCH23390]
Human DA D1 receptor
  affinity for the [3H]SCH23390 binding site, DA D1 receptor: high affinity

## Oc1cc2c(cc1O)C(c1ccccc1)CNCC2 (stereo not shown) [SKF38393]
Human DA D1 receptor
  affinity for the [3H]SCH23390 binding site, DA D1 receptor: high affinity

## O=C(CCCN1CCC2(CC1)C(=O)NCN2c1ccccc1)c1ccc(F)cc1 [Spiperone, reference compound]
hSigma1 receptor
  Ki: 1310 ± 240 nM
